Results published in publication PMC8111499, “GW117: A novel serotonin (5‐HT2C) receptor antagonist and melatonin (MT1/MT2) receptor agonist with potential antidepressant‐like activity in rodents” (CNS Neuroscience & Therapeutics, 2021).

What was measured:
MT1 receptor [1] = target: T1, MT1 receptor (Homo sapiens, UniProt P48039); experiment: MT1 receptor binding assay ([3H]‐melatonin competition); conditions: mean ± SEM, three independent experiments
T1 construct: purchased Perkin‐Elmer ES‐620
Protocol: The stably transfected 5‐HT2C receptor HEK293 cell line was prepared using a nucleus‐cytoplasm‐membrane preparation kit (Applagin Technologies Inc.). Briefly, cells were harvested at 4°C, 110 00 × g and centrifugation for 5 min. Homogenize pellets in the assay buffer (50 mM Tris‐HCl buffer containing 120 mM NaCl and 5 mM KCl, pH 7.4) and then centrifuged twice at 4°C, 36,000 × g for 15 min. Finally, pellets were re‐suspended in assay buffer and stored it at −80°C until it is used for in vitro experiments.
Receptor membrane protein, MT1 or MT2 (10 μl), was added to all pipes. Non‐specific binding was determined by the presence of unlabeled 10 µM melatonin and pre‐reacted for 30 min. In test tubes, 30 μl of test drugs (MT1: concentration, 10^−4–10^−10 M; MT2: concentration, 10^−4–10^−11 M) was added. Additionally, 40 μl [^3H]‐melatonin was added to all tubes. The volume in all reaction tubes was made up to 300 μl with Tris‐HCl buffer (50 mM, pH 7.4). Reactions were performed at 25°C for 1 h. The mixture was then spotted onto a type 49 glass fiber filter paper, suction filtered under vacuum, rinsed three times with 2 ml ice‐cold Tris‐HCl buffer (50 mM, pH 7.4), and dried by suction. […] Finally, 1 ml of scintillation fluid was added and then the radioactive intensity measured by liquid scintillation counting.

MT1 receptor [2] = target: T1, MT1 receptor; experiment: [35S]‐GTPγS binding assay, MT1; format: biochemical
Protocol: (§1) This experiment was mentioned earlier. ^27 In short, HEK293 cell membrane stably expressing human 5‐HT2C receptors or rat hippocampal tissue membrane or MT1/MT2 receptors was re‐suspended in buffer (50 mmol/L Tris, 100 mmol/L NaCl, 5 mmol/L MgCl2·6H2O, 0.1 mmol/L EDTA‐Na2·6H2O, 0.2 mmol/L EGTA, pH 7.4) and incubated with the test compound (100 μM GDP, 0.2 nM [^35S]‐GTP, or [^3H]PIP) for 60 min at 28℃. At the end of the experiment, Whatman GF/C filters pre‐soaked with distilled water were used for rapid filtration followed by washing with 5 ml of ice‐cold Tris buffer. Determination of non‐specific binding in the presence of GTPγS and radioactivity was measured by liquid scintillation counting. Calculation of the concentration produces a half‐maximal effect (EC50) and the maximal increase above the baseline value.

MT2 receptor = target: T2, MT2 receptor (Homo sapiens, UniProt P49286); experiment: [35S]‐GTPγS binding assay, MT2; format: biochemical
T2 construct: purchased Perkin‐Elmer ES‐621
T2 sequence (P49286 1-362): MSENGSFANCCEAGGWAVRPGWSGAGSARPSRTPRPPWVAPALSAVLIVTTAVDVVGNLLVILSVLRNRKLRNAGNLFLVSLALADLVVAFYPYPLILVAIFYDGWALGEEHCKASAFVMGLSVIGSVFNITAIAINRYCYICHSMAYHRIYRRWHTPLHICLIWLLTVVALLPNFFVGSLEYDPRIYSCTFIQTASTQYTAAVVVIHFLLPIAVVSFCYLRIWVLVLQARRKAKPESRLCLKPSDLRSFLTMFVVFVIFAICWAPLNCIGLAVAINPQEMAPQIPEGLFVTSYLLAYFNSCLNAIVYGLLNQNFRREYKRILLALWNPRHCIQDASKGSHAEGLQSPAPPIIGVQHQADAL
Protocol: as §1

mice = experiment: Tail suspension test in mice; format: in vivo, ICR mice
Protocol: The tail suspension test (TST) was conducted as described earlier. ^28 , ^29 Eighty naive mice were randomly divided into eight treatment groups (n = 10/group). All mice received a single dose of the drug (p.o.). After 60 min of gavage administration, mice were suspended from the top of the apparatus (25 × 25 × 35 cm) using tape about 1 cm from the tail tip. The duration of immobility was recorded in the last 4 min for a total of 6 min. When mice are passively suspended immobile, they are judged to be stationary.

rats = experiment: Forced swimming test in rats; format: in vivo, Sprague Dawley (SD) rats; conditions: single dose p.o., 10, 20, or 40 mg/kg, vs. vehicle
Protocol: The forced swimming test (FST) was conducted as described earlier. ^30 Eighty naive rats were randomized into eight treatment groups (n = 9‐12/group). All rats received a single drug administration (p.o.). The procedure consisted of two sessions, to be specific, a pre‐test session and a test session. A cylindrical container (diameter, 20 cm; height, 40 cm; including 30 cm of water and kept at 25℃) was used. During the pre‐test phase, rats were required to perform forced swimming for 15 min. The test session was performed 24 h later, put the rats in the same cylindrical container for 5 min and immobility duration over 5 min recorded. […] Rats were considered immobile when they entered a floating posture, specifically, immobile, passive, and with their heads above water.

CUS rats = experiment: Open field test in chronic unpredictable stress (CUS) rats; format: in vivo; conditions: CUS rats, 5, 10, 20, 40 mg/kg p.o., 4‐week stress, vs. CUS‐vehicle
Protocol: In order to further examine the antidepressant effects of GW117, chronic unpredictable stress (CUS) model was utilized; the methods were as described before. ^29 , ^31 After 1 week of training, rats underwent sucrose training of 48 h. After training, a sucrose baseline test was performed. […] Gastric gavage was given 1 h before the stress (08:00–09:00). Except for the non‐stressed group, all rats were stimulated by a series of stressors. stress methods included the following: fast on food and water (24 h), moisture cage (150 g sawdust bedding in 200 ml water), overnight illumination, low‐intensity strobe illumination (100 flashes/min), forced swimming (5 min at 10℃), white noise (110 dB), tail pinch (1 cm from tail root, 6 min), 45℃ cage tilt, and restraint (1–2 h). Stressors need to be used continuously and randomly. Non‐stressed rats received free food and water, but were required to fast for 14 h before sucrose preference test. After 4 weeks of stress, the sucrose preference test (SPT) (on day 25), open field test (OFT) (on day 28), and novelty‐suppressed feeding (NSF) test (on day 29) were carried out.
The OFT device was a chamber (diameter, 122 cm; height, 45 cm) that was grouped equally into 16 sections. 24 h after the last administration, rats were put into the center of the chamber and the numbers of crossings and readings were recorded in 5 min.

[3] = previous study; cited from earlier work

T1 sequence (P48039 whole entry): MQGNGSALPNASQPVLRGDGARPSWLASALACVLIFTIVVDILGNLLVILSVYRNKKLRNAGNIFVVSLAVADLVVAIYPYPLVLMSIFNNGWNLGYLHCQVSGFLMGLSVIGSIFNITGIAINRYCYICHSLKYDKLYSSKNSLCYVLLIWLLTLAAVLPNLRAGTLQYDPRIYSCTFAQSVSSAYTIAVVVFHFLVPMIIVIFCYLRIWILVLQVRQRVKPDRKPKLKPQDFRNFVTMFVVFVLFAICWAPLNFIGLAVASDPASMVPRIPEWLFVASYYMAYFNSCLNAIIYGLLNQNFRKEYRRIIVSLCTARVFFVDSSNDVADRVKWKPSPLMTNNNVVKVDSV

Ki (MT1 receptor [1]): 0.12 ± 0.06 nM
character of effect on MT1 receptor (MT1 receptor [2]; [35S]‐GTPγS binding): full agonist
Emax (MT1 receptor [2]; [35S]‐GTPγS binding, read-out: maximal increase over basal binding (% Emax), MT1 receptor): 104 ± 7.34%
EC50 (MT1 receptor [2]; read-out: EC50 of stimulation of specific [35S]‐GTPγS binding, MT1 receptor): 2.49 nM
character of effect on MT2 receptor (MT2 receptor; [35S]‐GTPγS binding): full agonist
Emax (MT2 receptor; [35S]‐GTPγS binding, read-out: maximal increase over basal binding (% Emax), MT2 receptor): 103 ± 4.56%
EC50 (MT2 receptor; read-out: EC50 of stimulation of specific [35S]‐GTPγS binding, MT2 receptor): 1.54 nM
Compound: [2H]C([2H])([2H])Oc1cc2c(CCNC(C)=O)cccc2cc1Cl [GW117]
immobility time in TST (mice; acute, p.o., 20 and 40 mg/kg, vs. vehicle): markedly reduced the immobility time
minimal effective dose in TST (mice; immobility time): 20 mg/kg
immobility time in FST (rats): markedly reduced the immobility time
number of rearings and crossings in open field (CUS rats): markedly add to the number of rearings and crossings
toxic effects compared with agomelatine [3]: lower toxic effects
